Assay results reported in US20240415123A1, “METHODS AND COMPOSITIONS FOR ICAFOLIN HERBICIDE TOLERANCE” (Monsanto Technology LLC, priority 2023, published 2024).

Tested on: transgenic soybean plants expressing CYP13
Test: Icafolin herbicide injury rating, greenhouse spray, CYP13 soybean
Assay type: in vivo
Conditions: for Percent Injury 15 DAT / Percent injury 21 DAT: Experiment 1
Description: The codon-optimized polynucleotide sequences were placed into plant transformation cassettes with each CYP coding sequence operably-linked to a constitutive expression element comprising the promoter, leader, and intron sequence of Arabidopsis thaliana Ubiquitin 3 (SEQ ID NO:14) and a Medicago truncatula photosystem II terminator (SEQ ID NO:15). Four plant transformation vectors were created, each comprising one of the CYP gene expression cassettes and an aadA selectable marker expression cassette, conferring resistance to the antibiotics spectinomycin and streptomycin. Soybean cultivar AG3555 seed-derived embryo explants were transformed with the vectors by Agrobacterium-mediated transformation using known methods in the art, and transformed plantlets were selected based on growth in the presence of spectinomycin. Plantlets comprising single copy events were grown in the greenhouse to produce R1 seeds. R1 plants were subsequently selected for homozygous CYP-positive plants, either by molecular analysis of young leaf tissue or by seed chipping prior to planting. These selected plants were then screened for tolerance to icafolin herbicide.
Herbicide tolerance screens were performed by selecting R1 plants at roughly the V2-V3 developmental stage and applying icafolin herbicide with a track sprayer under standard greenhouse conditions. Two independent transgenic events per transgene were screened. The herbicide was formulated with 1% v/v methylated seed oil (MSO) and 2.5% v/v ammonium sulfate (AMS) and sprayed with a XR nozzle at 15 gallons per […] (GPA) to mimic field conditions. The icafolin used in this Example and in the experiments described in Examples 2-4 was a mixture of the methyl ester forms of the 2R, 4R and 2S, 4S isomers. The icafolin formulation was sprayed at two rates: 5 g active ingredient (ai)/hectare (ha) and 25 g ai/ha. The herbicide treated soybean plants were returned to the greenhouse following spray application and allowed to grow under standard conditions. Plants were rated for herbicide injury at approximately 14 and 21 days after treatment (DAT). Untreated transgenic plants and control (wild-type) plants were used for phenotypic comparison. The herbicide injury rating accounts for plant malformation, stunting, chlorosis, necrosis, and plant death relative to the untreated control plants. An injury rating of approximately 90% or above indicates nearly complete plant death. An injury rating of less than 30% indicates partial tolerance, and an injury rating of less than 20% indicates good tolerance. Injury ratings were collected and analyzed, and photographs of representative plants were taken.

[1] = CYP13 Event 943, 5 g ai/ha icafolin
[2] = CYP13 Event 943, 25 g ai/ha icafolin
[3] = CYP13 Event 982, 5 g ai/ha icafolin
[4] = CYP13 Event 982, 25 g ai/ha icafolin

## C=C[C@]1(C(=O)N[C@H]2CO[C@@H](C(=O)OC)C2)CC(c2cc(F)cc(F)c2)=NO1 (relative stereo) [icafolin, methyl(2R*,4R*)-4-[[(5S)-3-(3,5-difluorophenyl)-5-vinyl-4H-isoxazole-5-carbonyl]amino]tetrahydrofuran-2-carboxylate]
[1]
  Percent Injury 15 DAT: 42%
  Percent injury 21 DAT: 59%
[2]
  Percent Injury 15 DAT: 74%
  Percent injury 21 DAT: 80%
[3]
  Percent Injury 15 DAT: 41%
  Percent injury 21 DAT: 52%
[4]
  Percent Injury 15 DAT: 69%
  Percent injury 21 DAT: 80%
In vivo
  Tolerance to icafolin: did not show any noticeable tolerance
